Results on 3 compounds are retold here after ChEMBL document CHEMBL1201862, “PubChem BioAssay data set” (2004).

The structures appear in SMILES notation.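 The compound was tested at five concentrations on cells cultured in 96-well plates, with a 48-hour exposure period. Abbreviation: GI50, concentration required for 50% inhibition of growth.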 Active and inactive are the calls of the source. Cut-off read from the data, not from the text of the source: active = GI50 up to about 1.1 µM and inactive = higher. A value given as a limit tells only on which side of the number the result lay.

What all share (experiment): growth of human tumour cells (NCI), 48 h
Test [1] relates to SK-MEL-5.
The subject of test [2] is OVCAR-4.
Test [3] relates to HT-29.
For test [4], the system named is MOLT-4.
The test system of test [5] is HOP-92.
In test [6] the test system is SN12C.
Test [7] deals with NCI/ADR-RES.
Test [8] relates to K562.
Test [9] deals with SF-539.
Test [10] concerns M14.
In test [11] the test system is M19-MEL.
Test [12] concerns OVCAR-8.
The test system of test [13] is NCI-H460.
Test [14] relates to SF-295.
Test [15] has as its system SR.
Test [16] concerns SK-MEL-2.
Test [17] relates to EKVX.
Test [18] has as its system HOP-62.
Test [19] concerns T47D.
Test [20] has as its system OVCAR-5.

For the compound `CCN(CC)C(=S)SC1CCOP(=O)(N(CCCl)CCCl)N1C` (stereo not given), the GI50 in test [1] is 2.96 µM (inactive); in test [2], 29.9 µM (inactive); in test [3] it was 1.99 µM (inactive); in test [4], 0.439 µM (active); in test [5], 28.2 µM (inactive); in [6], 28.9 µM (inactive). Also, the GI50 in test [7] was > 100 µM (inactive); in [8], 0.399 µM (active); in test [9], 33.4 µM (inactive); in test [10], > 39.7 µM (inactive); in [11], 0.212 µM (active); in [12], 29.9 µM (inactive). The GI50 was 1.02 µM (active) in [13]; 55.6 µM (inactive) in [14]; 0.185 µM (active) in test [15]; 20.5 µM (inactive) in test [16]; 57.1 µM (inactive) in test [17]; > 95.1 µM (inactive) in test [18]. Further, the GI50 in [19] was 61.7 µM (inactive); in test [20] it was 12.1 µM (inactive).
Take `C/C=C(\N=C=S)C(=O)OC1C(COC(C)=O)OC([C@]2(O)CC(=O)C(N)=C(C(=O)O)C2=O)C(O)C1OC1CC(OC)C(O)([C@@H](C)OC(=O)[C@@H](C)CC)C(C)O1` (stereo not given in full): the GI50 in test [1] was 14.8 µM (inactive); in test [2], 4.26 µM (inactive); in test [3], 8.49 µM (inactive); in test [4], 2.44 µM (inactive); in [5] it was 3.45 µM (inactive); in test [6], 15 µM (inactive). For the same compound, the GI50 in test [7] was 94.4 µM (inactive); in test [8] it was 2.11 µM (inactive); in test [9] it was 7.53 µM (inactive); in test [10], 16 µM (inactive); in test [11], 2.6 µM (inactive); in [12] it was 5.65 µM (inactive). The GI50 is 20.7 µM (inactive) in test [13]; 18.1 µM (inactive) in [14]; 4.39 µM (inactive) in test [15]; 9.33 µM (inactive) in test [16]; 12.6 µM (inactive) in test [17]; 22.1 µM (inactive) in test [18]. Besides, the GI50 was 11.2 µM (inactive) in [19] and 20.7 µM (inactive) in test [20].
As for `COC(=O)[C@@]12OC[C@]34[C@H]([C@@H](O)[C@@H]1O)[C@@]1(C)CC(=O)C(O)=C(C)[C@@H]1C[C@H]3OC(=O)[C@H](OC(=O)/C=C(\C)C(C)C)[C@@H]24` [BRUCEANTIN], the GI50 in test [1] is 0.02 µM (active); in test [2] it was 0.0211 µM (active); in test [3], 0.02 µM (active); in test [4], 0.02 µM (active); in [5] it was 0.0328 µM (active); in [6], 0.0222 µM (active). Besides, the GI50 in [7] is 0.337 µM (active); in [8], 0.02 µM (active); in [9], 0.02 µM (active); in test [10] it was 0.00346 µM (active); in test [11], 0.02 µM (active); in [12], 0.02 µM (active). Moreover, the GI50 in [13] is 0.02 µM (active); in [14], 0.02 µM (active); in [15] it was 0.00512 µM (active); in test [16], 0.0209 µM (active); in [17], 0.0223 µM (active); in test [18], 0.02 µM (active). Moreover, the GI50 in test [19] was 0.0153 µM (active); in test [20], 0.0265 µM (active).
